The values that follow come from ChEMBL document CHEMBL3596146, “Design, synthesis, and biological evaluation of a series of alkoxy-3-indolylacetic acids as peroxisome proliferator-activated receptor γ/δ agonists” (Bioorg Med Chem, 2015).

The test system of data set [1] is Mus musculus. The data set is described as follows: Decrease in triglyceride content in C57BLKS/J-Lepr/Lepr db/db mouse liver at 3 mg/kg, po administered via gavage by hematoxylin-eosin staining. It is filed as functional.
In data set [2] the target is T1, Peroxisome proliferator-activated receptor delta (Homo sapiens) (UniProt Q03181).
T1 sequence (whole entry): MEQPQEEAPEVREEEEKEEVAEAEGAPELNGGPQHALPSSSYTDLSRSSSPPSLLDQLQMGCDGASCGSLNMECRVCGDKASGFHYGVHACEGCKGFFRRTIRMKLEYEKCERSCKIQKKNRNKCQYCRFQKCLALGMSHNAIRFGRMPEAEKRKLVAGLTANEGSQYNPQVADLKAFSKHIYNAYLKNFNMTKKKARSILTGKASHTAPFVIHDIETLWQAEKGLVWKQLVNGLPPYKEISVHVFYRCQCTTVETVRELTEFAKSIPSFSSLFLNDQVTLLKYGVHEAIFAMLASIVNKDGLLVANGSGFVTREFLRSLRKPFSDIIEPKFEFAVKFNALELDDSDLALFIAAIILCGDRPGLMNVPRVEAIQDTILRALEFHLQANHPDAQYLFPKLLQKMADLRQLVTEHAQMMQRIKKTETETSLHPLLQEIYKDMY
The data set is described as follows: Agonist activity at PPAR-delta (unknown origin) expressed in HEK293t cells co-transfected with tk-PPRE-luciferase vector at 10 uM after 24 hrs by transactivation assay relative to GW0742. The note with it: HEK-293T. The class given is cell-based.

Data set [3] has as its system Mus musculus. Briefly: Decrease in serum insulin level in C57BLKS/J-Lepr/Lepr db/db mouse at 3 to 10 mg/kg, po qd for 18 days administered via gavage by ELISA. It is filed as functional, organism-based. For orientation: ELISA stands for enzyme-linked immunosorbent assay.
Data set [4] has as its system Liver microsome. The data set is described as follows: Metabolic stability in human liver microsomes at 1 uM after 30 mins measured under phase 2 reaction by LC/MS/MS analysis. It is filed as ADME. The note with it: 0.5 h. (In general: Liver microsomes are a subcellular fraction often used to study metabolism.)
Data set [5] has as its target T2, Peroxisome proliferator-activated receptor alpha (Homo sapiens) (UniProt Q07869).
T2 sequence (whole entry): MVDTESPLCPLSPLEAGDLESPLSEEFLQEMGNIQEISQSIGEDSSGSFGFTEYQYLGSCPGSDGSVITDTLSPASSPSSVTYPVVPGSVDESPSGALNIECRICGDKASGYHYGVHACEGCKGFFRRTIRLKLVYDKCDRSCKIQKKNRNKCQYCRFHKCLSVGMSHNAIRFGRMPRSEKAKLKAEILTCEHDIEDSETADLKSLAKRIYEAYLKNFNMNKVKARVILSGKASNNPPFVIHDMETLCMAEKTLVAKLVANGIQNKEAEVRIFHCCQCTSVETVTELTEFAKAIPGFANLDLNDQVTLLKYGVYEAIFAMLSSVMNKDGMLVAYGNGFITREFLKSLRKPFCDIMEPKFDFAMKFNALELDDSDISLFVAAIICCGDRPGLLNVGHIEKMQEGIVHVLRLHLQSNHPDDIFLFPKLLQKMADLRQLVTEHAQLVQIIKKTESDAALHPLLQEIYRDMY
The data set is described as follows: Agonist activity at PPAR-alpha (unknown origin) expressed in CV-1 cells co-transfected with tk-PPRE-luciferase vector at 10 uM after 24 hrs by transactivation assay relative to GW7647. It is filed as cell-based.

Data set [6] has as its target T3, Peroxisome proliferator-activated receptor delta (Homo sapiens, UniProt Q03181).
T3 sequence (Q03181 whole entry): T1 sequence (whole entry)
The data set is described as follows: Agonist activity at PPAR-delta (unknown origin) expressed in HEK293t cells co-transfected with tk-PPRE-luciferase vector after 24 hrs by transactivation assay. It is filed as cell-based, HEK-293T.

For data set [7], the system named is Mus musculus. Briefly: Decrease in size of adipocytes in C57BLKS/J-Lepr/Lepr db/db mouse white adipose tissue at 10 mg/kg, po administered via gavage by hematoxylin-eosin staining relative to rosiglitazone-treated control. It is filed as functional.
In data set [8] the target is T4, Peroxisome proliferator-activated receptor alpha (Homo sapiens, UniProt Q07869).
T4 sequence (Q07869 whole entry): T2 sequence (whole entry)
The data set is described as follows: Agonist activity at PPAR-alpha (unknown origin) expressed in CV-1 cells co-transfected with tk-PPRE-luciferase vector after 24 hrs by transactivation assay. It is filed as cell-based.

Data set [9] deals with Mus musculus. The data set is described as follows: Decrease in fasting blood glucose level in C57BLKS/J-Lepr/Lepr db/db mouse at 3 to 10 mg/kg, po qd for 18 days administered via gavage by ELISA. It is filed as functional, organism-based.
Data set [10] relates to Mus musculus. The data set is described as follows: Effect on body weight in C57BLKS/J-Lepr/Lepr db/db mouse at 3 to 10 mg/kg, po qd for 18 days administered via gavage. The class given is ADME, organism-based. The note with it: in vivo, 432 h.
Data set [11] has as its system Liver microsome. Briefly: Metabolic stability in human liver microsomes at 1 uM after 30 mins measured under phase 1 reaction by LC/MS/MS analysis. The class given is ADME. The following applies: 0.5 h.
The target in data set [12] is T5, Peroxisome proliferator-activated receptor gamma (Homo sapiens, UniProt P37231).
T5 sequence (P37231 whole entry): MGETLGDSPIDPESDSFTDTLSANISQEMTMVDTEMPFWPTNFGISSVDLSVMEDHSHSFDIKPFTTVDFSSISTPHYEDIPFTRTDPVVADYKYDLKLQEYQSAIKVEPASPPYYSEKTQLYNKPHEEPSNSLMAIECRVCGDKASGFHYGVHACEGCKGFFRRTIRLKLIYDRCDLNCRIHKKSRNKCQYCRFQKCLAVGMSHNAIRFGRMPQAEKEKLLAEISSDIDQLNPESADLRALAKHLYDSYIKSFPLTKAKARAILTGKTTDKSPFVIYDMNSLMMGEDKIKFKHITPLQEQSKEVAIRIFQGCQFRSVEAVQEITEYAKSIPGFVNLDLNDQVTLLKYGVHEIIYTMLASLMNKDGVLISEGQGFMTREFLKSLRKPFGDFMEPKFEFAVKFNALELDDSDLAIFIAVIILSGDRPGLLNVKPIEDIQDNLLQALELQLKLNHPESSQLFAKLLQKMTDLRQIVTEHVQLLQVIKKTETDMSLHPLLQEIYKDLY
Briefly: Agonist activity at PPAR-gamma (unknown origin) expressed in CV-1 cells co-transfected with tk-PPRE-luciferase vector after 24 hrs by transactivation assay. It is filed as cell-based.

The subject of data set [13] is Mus musculus. Briefly: Decrease in serum Hb1Ac level in C57BLKS/J-Lepr/Lepr db/db mouse at 3 to 10 mg/kg, po qd for 18 days administered via gavage by ELISA. The class given is functional, organism-based.
Data set [14] is described as follows: Metabolic stability in mouse liver microsomes at 1 uM after 30 mins measured under phase 2 reaction by LC/MS/MS analysis. The class given is ADME. The note with it: 0.5 h.
Data set [15] concerns the target T6, Peroxisome proliferator-activated receptor gamma (Homo sapiens) (UniProt P37231).
T6 sequence (whole entry): T5 sequence (P37231 whole entry)
The data set is described as follows: Agonist activity at PPAR-gamma (unknown origin) expressed in CV-1 cells co-transfected with tk-PPRE-luciferase vector at 10 uM after 24 hrs by transactivation assay relative to rosiglitazone. The class given is cell-based.

Data set [16] is described as follows: Metabolic stability in mouse liver microsomes at 1 uM after 30 mins measured under phase 1 reaction by LC/MS/MS analysis. The class given is ADME. The note with it: 0.5 h.
Data set [17] has as its system Mus musculus. Briefly: Decrease in size of adipocytes in C57BLKS/J-Lepr/Lepr db/db mouse white adipose tissue at 10 mg/kg, po administered via gavage by hematoxylin-eosin staining relative to untreated control. It is filed as functional.
Data set [18] is described as follows: Retention time of the compound by HPLC analysis. The class given is physicochemical.

Calls of active or inactive are those of the source. No cut-off for these calls is given here.

The compound `O=C(O)Cc1cn(Cc2ccccc2)c2ccc(OCCCOc3cccc(OCc4ccc(Cl)cc4)c3)cc12` came in with an inhibition in vivo at 3 mg/kg with Mus musculus [1] of 24%. Also, the Emax came to 82% in [2], 31.2% in [5] and 100% in [15]. Moreover, the inhibition entry with Mus musculus [3], in the data set on Mus musculus [9] and in the data set with Mus musculus [13] was “Active” each time. In addition, the Stability entry (in the data set on Liver microsome [4]; in the data set on Liver microsome [11]; in [14]; in [16]) was “Stable” each time. In addition, the EC50 is 2.2 µM in data set [6], 8.6 µM in data set [8] and 0.5 µM in [12]. Besides, the inhibition in vivo at 10 mg/kg in the data set with Mus musculus [7] came to 36%; in the data set with Mus musculus [17], 18%. Besides, the Activity entry with Mus musculus [10] is reported as “Non-toxic”. The same compound displayed a Retention_time in data set [18] of 24.111 min.

One may read the inhibition in vivo as how much of the control response was suppressed. One may read the EC50 as the concentration that produces a half-maximal response. Read a low EC50 as higher potency in that assay.
